Laboratory results as given in the supplement of paper PMC4862054.

Key:
Assay in all cases: normalised viability (% of control), CellTiter-Blue; higher = more viable cells (about 100 = DMSO control)
Details in all cases: incubation time: 72 h
[1] = system: MDA-MB-468
Procedure, shortened: (§1)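 Each value is normalised viability at a single listed concentration of the series. Breast cancer cell lines in 384-well plates were incubated 72 h with compound and read by CellTiter-Blue fluorescence at 560/590 nm, with vehicle set to 100 and a positive kill control to 0 on every plate.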

[2] = system: DU-4475
Procedure, shortened: as §1

[3] = system: HCC1599
Procedure, shortened: as §1

[4] = system: HDQ-P1
Procedure, shortened: as §1

[5] = system: CAL-51
Procedure, shortened: as §1

[6] = system: Hs578T
Procedure, shortened: as §1

[7] = system: HCC1143
Procedure, shortened: as §1

[8] = system: CAL-85-1
Procedure, shortened: as §1

[9] = system: BT-474
Procedure, shortened: as §1

[10] = system: HCC1937
Procedure, shortened: as §1

[11] = system: CAL-148
Procedure, shortened: as §1

[12] = system: CAL-120
Procedure, shortened: as §1

[13] = system: SK-BR-3
Procedure, shortened: as §1

[14] = system: MDA-MB-453
Procedure, shortened: as §1

[15] = system: BT-549
Procedure, shortened: as §1

C[C@]12CC[C@@H]3c4ccc(O)cc4C[C@@H](CCCCCCCCC[S+]([O-])CCCC(F)(F)C(F)(F)F)[C@H]3[C@@H]1CC[C@@H]2O (some centres not stated) [Fulvestrant]
normalised viability [%]
Details	3 nM	10 nM	30 nM	100 nM	1000 nM	10000 nM
[1]	–	97.5	–	–	104	83.6
[2]	91.6	–	78	91.5	–	–
[3]	–	93.9	–	–	82.6	92.4
[4]	83.7	–	92.2	94	–	–
[5]	116	–	107	109	–	–
[6]	–	103	–	–	91.7	86.2
[7]	–	76.6	–	–	81.5	78.1
[8]	91.8	–	91.7	90.3	–	–
[9]	–	94.7	–	–	88.4	107
[10]	–	88.3	–	–	85.5	88.3
[11]	89	–	87.5	87.3	–	–
[12]	–	79.2	–	–	90.7	87.6
[13]	–	76.9	–	–	109	84.5
[14]	108	–	81.1	93.7	–	–
[15]	–	74.7	–	–	86.5	74.8

CC1(C)NC(=O)N(c2ccc([N+](=O)[O-])c(C(F)(F)F)c2)C1=O [Nilutamide]
normalised viability [%]
Details	3 nM	10 nM	30 nM	100 nM	1000 nM	10000 nM
[1]	–	115	–	–	103	103
[2]	88	–	108	90.7	–	–
[3]	–	97.9	–	–	82.5	113
[4]	124	–	120	112	–	–
[5]	101	–	96.1	94.6	–	–
[6]	–	108	–	–	139	119
[7]	–	89.3	–	–	113	94
[8]	98	–	88.9	100	–	–
[9]	–	122	–	–	128	110
[10]	–	105	–	–	87.3	94.7
[11]	95.5	–	100	97	–	–
[12]	–	95.6	–	–	90.1	116
[13]	–	100	–	–	104	132
[14]	120	–	87.5	109	–	–
[15]	–	97.2	–	–	85.5	97.2

Cc1ccc(C(=O)Nc2ccc(CN3CCN(C)CC3)c(C(F)(F)F)c2)cc1C#Cc1cnc2cccnn12 [Ponatinib]
Details	normalised viability [%]
[1], 1 nM	98.2
[1], 1000 nM	78.7
[2], 0.3 nM	91.6
[2], 3 nM	91.7
[2], 10 nM	84.5
[3], 1 nM	95.4
[3], 100 nM	95.4
[3], 1000 nM	64.9
[4], 0.3 nM	102
[4], 3 nM	126
[4], 10 nM	115
[5], 0.3 nM	95.2
[5], 3 nM	97.7
[5], 10 nM	89.5
[6], 1 nM	105
[6], 100 nM	110
[6], 1000 nM	73.9
[7], 100 nM	113
[7], 1000 nM	98.8
[8], 0.3 nM	92.5
[8], 3 nM	85.4
[8], 10 nM	101
[9], 1 nM	102
[9], 100 nM	110
[9], 1000 nM	91.2
[10], 1 nM	78.3
[10], 100 nM	115
[11], 0.3 nM	96.8
[11], 3 nM	105
[11], 10 nM	110
[12], 1 nM	95.3
[12], 100 nM	85.4
[12], 1000 nM	13.8
[13], 1 nM	104
[13], 100 nM	103
[13], 1000 nM	71.3
[14], 0.3 nM	102
[14], 3 nM	101
[14], 10 nM	87.3
[15], 1 nM	107
[15], 100 nM	120
[15], 1000 nM	49.3

NCC(=O)CCC(=O)O [Aminolevulinic acid]
normalised viability [%]
Details	3 nM	10 nM	30 nM	100 nM	1000 nM	10000 nM
[1]	–	101	–	–	111	102
[2]	104	–	77.5	110	–	–
[3]	–	84.3	–	–	86.5	90.8
[4]	95.2	–	105	110	–	–
[5]	105	–	100	92.9	–	–
[6]	–	108	–	–	104	96.3
[7]	–	81.1	–	–	82.6	85.2
[8]	99.9	–	87.1	98.8	–	–
[9]	–	115	–	–	119	131
[10]	–	86.8	–	–	84.2	86.4
[11]	93.8	–	101	98.8	–	–
[12]	–	89.6	–	–	103	104
[13]	–	96.3	–	–	108	101
[14]	110	–	93.5	90.2	–	–
[15]	–	85.6	–	–	84.1	90

Cn1c(Nc2ccc(C(F)(F)F)cc2)nc2cc(Oc3ccnc(-c4ncc(C(F)(F)F)[nH]4)c3)ccc21 [RAF265]
normalised viability [%]
Details	0.3 nM	1 nM	3 nM	10 nM	100 nM	1000 nM
[1]	–	110	–	–	94.2	80.1
[2]	102	–	95.6	116	–	–
[3]	–	104	–	–	106	106
[4]	95.3	–	94.6	79.7	–	–
[5]	91.4	–	94.2	99.1	–	–
[6]	–	97.8	–	–	90.9	78.3
[7]	–	90.1	–	–	78	72.5
[8]	87.4	–	83.3	89.8	–	–
[9]	–	118	–	–	107	96.4
[10]	–	103	–	–	78.7	62
[11]	89.4	–	87.1	89.2	–	–
[12]	–	88.5	–	–	64.5	51.3
[13]	–	96.2	–	–	96.3	106
[14]	99.2	–	109	98.3	–	–
[15]	–	87.3	–	–	80.8	78.5
